# Experimental data: US6709864B1, “Adipogenic differentiation of human mesenchymal stem cells” (Osiris Therapeutics, Inc., priority 1996, dated 2004)
# Legend:
# [1] = test system: human mesenchymal stem cells; assay: Nile Red / DAPI fluorescence plate reader assay of adipogenic differentiation of hMSCs; type: cell-based
# Protocol: These experiments were performed to determine the effect of adding varying concentrations of indomethacin to mesenchymal stem cells in culture to induce adipogenic differentiation. […] We also tested indomethacin under the same conditions however in the absence of methyl isobutylxanthine. The results were compared visually by observing the accumulation of lipid within the cells and by staining the lipid with the fluorescent lipid-soluble dye Nile Red and reading on a fluorescence plate reader as described in Example 6. These experiments were performed to determine the effect of adding varying concentrations of 15-deoxy Δ^12,14 -prostaglandin J2 (15d-PGJ2) to […] in culture to induce adipogenic differentiation. […] We also tested 15d-PGJ2 under the same conditions without methyl isobutylxanthine present. hMSCs were grown in 12 or 24 well tissue culture plates and were treated with adipogenic inducing agents as described above when the cells were post-confluent. After three treatments, the cells were allowed to accumulate lipid for an additional week prior to analysis. The cell layers were rinsed with Dulbecco's modified PBS (D.PBS) and fixed for 30 minutes in 10% Neutral Buffered Formalin. The plates were then rinsed with D. PBS and incubated for 30 minutes with 0.02% Saponin, 0.8 μg/ml DAPI (from an aqueous 2 mg/ml stock) and 1 μg/ml Nile Red (from a 1 mg/ml stock in acetone) in D. PBS. Plates were then rinsed three times with D.PBS.
# [2] = test system: human mesenchymal stem cells; assay: Adipogenesis assay of hMSCs, lipid vacuoles observed by microscopy / Oil Red O; type: cell-based; conditions: methyl isobutylxanthine alone in normal hMSC media during induction, then 14 days Adipogenic Maintenance Media
# Protocol: Human MSCs are isolated from the red bone marrow of volunteer donors as described in U.S. Pat. No.5,486,359. The cells are grown until colonies are well established and at this point the cells are subcultured (1 to 3) or they can be taken to assay for in vitro adipogenesis. For the adipogenesis assay, hMSCs are subcultured into 35 mm tissue culture dishes at 100,000 cells per dish and fed with 2 milliliters normal hMSC Media (Dulbecco's Modified Eagle's Media (DMEM), 10% selected Fetal Bovine Serum (FBS) and antibiotic/antimycotic mixture (IX) (Life Technologies, Inc.)) and cells are maintained at 37° C., 5% CO2 and 90% humidity. The cells are refed with the fresh media every third day and are allowed to multiply and become confluent. The cells are maintained after reaching confluence by refeeding every third day and this time period of post confluence culturing enhances the adipogenic response in the next step (at least out to 14 days). The differentiation into adipocytes is initiated by changing the media to 2 ml of Adipogenic Induction Media (DMEM with 10% fetal bovine serum containing 10 μg/ml insulin (human recombinant, Boehringer Mannheim Corp.), 0.5 mM methyl isobutylxanthine (MIX)(Sigma Chemical Co.), 1 μM dexamethasone (Dex)(Sigma Chemical Co.)). […]
# [3] = 1 μM 15d-PGJ2 with insulin only (I)
# [4] = 10 μM 15d-PGJ2 with insulin only (I)
# [5] = 50 μM indomethacin in DI (no MIX)
# [6] = 50 μM indomethacin with insulin only (I)
# [7] = 100 μM indomethacin in DI (no MIX)
# [8] = 100 μM indomethacin with insulin only (I)
# [9] = 200 μM indomethacin in DI (no MIX)
# [10] = 200 μM indomethacin with insulin only (I)
compound,measurement,setting,value
"CCCCC/C=C/C=C1/C(=O)C=C[C@@H]1C/C=C\CCCC(=O)O [15d-PGJ2, 15-deoxy Δ^12,14-prostaglandin J2]",DAPI (cor),[1]; 1 μM 15d-PGJ2 in DI (no MIX),5.99 relative fluorescence intensity
same,Nile red (cor),[1]; 1 μM 15d-PGJ2 in DI (no MIX),1.19 relative fluorescence intensity
same,Nile red/DAPI,[1]; 1 μM 15d-PGJ2 in DI (no MIX),0.20
same,DAPI (cor),[1]; 1 μM 15d-PGJ2 in MDI,6.53 relative fluorescence intensity
same,Nile red (cor),[1]; 1 μM 15d-PGJ2 in MDI,13.16 relative fluorescence intensity
same,Nile red/DAPI,[1]; 1 μM 15d-PGJ2 in MDI,2.02
same,DAPI (cor),[1]; [3],4.98 relative fluorescence intensity
same,Nile red (cor),[1]; [3],0.83 relative fluorescence intensity
same,Nile red/DAPI,[1]; [3],0.17
same,DAPI (cor),[1]; 10 μM 15d-PGJ2 in MDI,7.22 relative fluorescence intensity
same,Nile red (cor),[1]; 10 μM 15d-PGJ2 in MDI,17.56 relative fluorescence intensity
same,Nile red/DAPI,[1]; 10 μM 15d-PGJ2 in MDI,2.43
same,DAPI (cor),[1]; [4],5.75 relative fluorescence intensity
same,Nile red (cor),[1]; [4],0.85 relative fluorescence intensity
same,Nile red/DAPI,[1]; [4],0.15
same,adipogenic response,[1]; 15d-PGJ2 1 or 10 μM in MDI induction medium,dose dependent increase
same,adipogenic effectiveness compared with indomethacin,[1]; 15d-PGJ2 at 10 μM added to MDI medium,nearly as effective as indomethacin
same,effect on adipogenesis,[1]; 15d-PGJ2 with insulin alone,no significant effect
same,DAPI (cor),[1]; DI + 10 15d-PGJ2 (no MIX),5.36 relative fluorescence intensity
same,Nile red (cor),[1]; DI + 10 15d-PGJ2 (no MIX),2.57 relative fluorescence intensity
same,Nile red/DAPI,[1]; DI + 10 15d-PGJ2 (no MIX),0.48
same,adipogenic response,[1]; DI + 15d-PGJ2,weak adipogenic response
COc1ccc2c(c1)c(CC(=O)O)c(C)n2C(=O)c1ccc(Cl)cc1 [indomethacin],DAPI (cor),[1]; [5],6.66 relative fluorescence intensity
same,Nile red (cor),[1]; [5],3.11 relative fluorescence intensity
same,Nile red/DAPI,[1]; [5],0.47
same,DAPI (cor),[1]; 50 μM indomethacin in MDI,7.8 relative fluorescence intensity
same,Nile red (cor),[1]; 50 μM indomethacin in MDI,11.72 relative fluorescence intensity
same,Nile red/DAPI,[1]; 50 μM indomethacin in MDI,1.50
same,DAPI (cor),[1]; [6],5.12 relative fluorescence intensity
same,Nile red (cor),[1]; [6],0.64 relative fluorescence intensity
same,Nile red/DAPI,[1]; [6],0.13
same,DAPI (cor),[1]; [7],6.77 relative fluorescence intensity
same,Nile red (cor),[1]; [7],5.35 relative fluorescence intensity
same,Nile red/DAPI,[1]; [7],0.79
same,DAPI (cor),[1]; 100 μM indomethacin in MDI,7.11 relative fluorescence intensity
same,Nile red (cor),[1]; 100 μM indomethacin in MDI,16.39 relative fluorescence intensity
same,Nile red/DAPI,[1]; 100 μM indomethacin in MDI,2.31
same,DAPI (cor),[1]; [8],5.81 relative fluorescence intensity
same,Nile red (cor),[1]; [8],0.74 relative fluorescence intensity
same,Nile red/DAPI,[1]; [8],0.13
same,DAPI (cor),[1]; [9],6.03 relative fluorescence intensity
same,Nile red (cor),[1]; [9],10.08 relative fluorescence intensity
same,Nile red/DAPI,[1]; [9],1.67
same,DAPI (cor),[1]; 200 μM indomethacin in MDI,8.72 relative fluorescence intensity
same,Nile red (cor),[1]; 200 μM indomethacin in MDI,20.27 relative fluorescence intensity
same,Nile red/DAPI,[1]; 200 μM indomethacin in MDI,2.32
same,DAPI (cor),[1]; [10],5.28 relative fluorescence intensity
same,Nile red (cor),[1]; [10],0.74 relative fluorescence intensity
same,Nile red/DAPI,[1]; [10],0.14
same,commitment of hMSCs to adipocyte lineage and intracellular lipid accumulation,[1]; indomethacin 50-200 μM in MDI induction medium,dose dependent increase
same,hMSCs becoming adipocytes,[1]; indomethacin at 200 μM in MDI,~100%
same,Nile Red staining relative to MDI sample alone,"[1]; indomethacin at 200 μM in MDI, fluorescent plate reader",nearly three times that of the MDI sample alone
same,adipogenic differentiation level relative to MDI+indomethacin,[1]; indomethacin in DMEM with dexamethasone and insulin only (DI),approximately half that of the MDI+indomethacin sample
same,effect on hMSC adipogenesis,[1]; indomethacin with insulin,no significant effect
"CC(C)Cn1c(=O)n(C)c(=O)c2[nH]cnc21 [methyl isobutylxanthine, 1-methyl-3-isobutylxanthine]",cell phenotype (morphology),[2],retain a flat fibroblastic phenotype
